Some results are limits rather than exact numbers.

Data set [1] has as its system Glomerella lacenarium (Colletotrichum lagenarium). The experiment in a line: Glomerella lagenarium liquid culture / cucumber / preventative (anthracnose). The data set is classed as cell-based. The following applies: Colletotrichum orbiculare; 20 ppm in the applied formulation; liquid culture (PDB), growth inhibition measured photometrically 3 to 4 days after application; compared to untreated; read-out: disease control. The method, boiled down: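 Conidia from cryogenic storage were mixed into potato dextrose broth. This was added to compound diluted from DMSO into 0.025% Tween20, tested at 20 ppm. Plates were incubated in the dark at 24 °C and 96% relative humidity, and growth was read photometrically after 2–7 days as % activity versus untreated check.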

The subject of a further data set is Uromyces viciae-fabae. The data set can be described thus: Uromyces viciae-fabae / field bean / leaf disc preventative (faba-bean rust). In kind it is in vivo. Particulars: foliar, 288 h, 100 ppm in the applied formulation, field bean leaf discs, compared to untreated, read-out: disease control. How it is done:
Leaf disks or leaf segments of various plant species are cut from plants grown in a greenhouse. The cut leaf disks or segments are placed in multiwell plates (24-well format) onto water agar. The leaf disks are sprayed with a test solution before (preventative) or after (curative) inoculation. Compounds to be tested are prepared as DMSO solutions (max. 10 mg/ml) which are diluted to the appropriate concentration with 0.025% Tween20 just before spraying. The inoculated leaf disks or segments are incubated under defined conditions (temperature, relative humidity, light, etc.) according to the respective test system. A single evaluation of disease level is carried out 3 to 14 days after inoculation, depending on the pathosystem. Percent disease control relative to the untreated check leaf disks or segments is then calculated. Field bean leaf discs are placed on water agar in multiwell plates (96-well format) and 10 μl of the formulated test compound diluted in acetone and a spreader pipetted onto the leaf disc. Two hours after application leaf discs are inoculated by spraying a spore suspension on the lower leaf surface. The leaf discs are incubated in a climate cabinet at 22° C. with 18 hour light/day and 70% relative humidity. The activity of a compound is assessed as percent disease control compared to untreated when an appropriate level of disease damage appears in untreated check leaf disks (12 days after application). The following compounds at 100 ppm in the applied formulation give at least 80% disease control in this test when compared to untreated control leaf discs under the same conditions, which show extensive disease development.

For data set [2], the system named is Puccinia recondita f. Sp. Tritici. The experiment in a line: Puccinia recondita f. sp. tritici / wheat / leaf disc curative (brown rust). In kind it is in vivo. Particulars: foliar, 24 h, 200 ppm in the applied formulation, wheat leaf segments cv. Kanzler, curative (applied 1 day after inoculation), compared to untreated, read-out: disease control. A digest of the protocol: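 Curative test: wheat leaf segments cv. Kanzler on agar inoculated with spore suspension, kept dark at 19 °C/75% RH, then sprayed 1 day post-inoculation with compound diluted in water. Incubated at 19 °C, 75% RH, 12 h light/dark; percent disease control versus untreated scored 6–8 days after application.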

For data set [3] the test system is unchanged. The data set can be described thus: Puccinia recondita f. sp. tritici / wheat / leaf disc preventative (brown rust). The data set is classed as in vivo. Particulars: foliar, 200 ppm in the applied formulation, wheat leaf segments cv. Kanzler, preventative (inoculated 1 day after application), compared to untreated, read-out: disease control. A digest of the protocol: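 Compound, diluted from DMSO solution into aqueous 0.025% Tween20, is sprayed at 200 ppm onto cut wheat segments (cv. Kanzler) placed on water agar. One day on, segments receive a fungal spore suspension and are incubated at 19° C., 75% rh, 12 h photoperiod, with % control vs untreated scored at 7–9 days.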

The next data set concerns Phakopsora pachyrhizi. The experiment in a line: Phakopsora pachyrhizi / soybean / leaf disc preventative (Asian soybean rust). The data set is classed as in vivo. The following applies: foliar, 200 ppm in the applied formulation, soybean leaf disks, compared to untreated, read-out: disease control. The method, boiled down:
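Read-out is percent disease control relative to untreated check discs, assessed once untreated discs show adequate disease, 12 to 14 days after application. Compounds, tested at 200 ppm in the applied formulation, are sprayed onto soybean leaf discs one day before inoculation with a spore suspension.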

With `CCC(=O)NCc1ccc(-c2noc(C(F)(F)F)n2)cc1` [Compound 1.1, N-[[4-[5-(trifluoromethyl)-1,2,4-oxadiazol-3-yl]phenyl]methyl]propanamide], in data set [1], the inhibition of growth at 20 ppm is at least 80%. Also, in the data set with Uromyces viciae-fabae, the pest or weed control at 100 ppm is at least 80%. Besides, the pest or weed control at 200 ppm (in data set [2]; in data set [3]; in the data set on Phakopsora pachyrhizi) was at least 80% throughout.
As to `CC(C)(C)C(=O)NCc1ccc(-c2noc(C(F)(F)F)n2)cc1` [Compound 1.2, 2,2-dimethyl-N-[[4-[5-(trifluoromethyl)-1,2,4-oxadiazol-3-yl]phenyl]methyl]propanamide], the melting point fell in the range of 120 to 127 °C. Further, the inhibition of growth at 20 ppm in data set [1] was at least 80%. Moreover, the pest or weed control at 100 ppm in the data set with Uromyces viciae-fabae was at least 80%. Further, the pest or weed control at 200 ppm in data set [2] was at least 80%. Further, in data set [3], the pest or weed control at 200 ppm is at least 80%. For the same compound, the pest or weed control at 200 ppm with Phakopsora pachyrhizi was at least 80%.
With `C#CCCC(=O)NCc1ccc(-c2noc(C(F)(F)F)n2)cc1` [Compound 1.5, N-[[4-[5-(trifluoromethyl)-1,2,4-oxadiazol-3-yl]phenyl]methyl]pent-4-ynamide], the inhibition of growth at 20 ppm in data set [1] was at least 80%. Further, in the data set with Uromyces viciae-fabae, the pest or weed control at 100 ppm is at least 80%. Also, the pest or weed control at 200 ppm (in data set [2]; in data set [3]; in the data set with Phakopsora pachyrhizi) was at least 80% throughout.
Regarding `COCCC(=O)NCc1ccc(-c2noc(C(F)(F)F)n2)cc1` [Compound 1.11, 3-methoxy-N-[[4-[5-(trifluoromethyl)-1,2,4-oxadiazol-3-yl]phenyl]methyl]propanamide], the inhibition of growth at 20 ppm in data set [1] is at least 80%. In the data set with Uromyces viciae-fabae, the pest or weed control at 100 ppm was at least 80%. Besides, the pest or weed control at 200 ppm (in data set [3]; in the data set on Phakopsora pachyrhizi) was at least 80% in each case.
In the case of `CC(C)(CCl)C(=O)NCc1ccc(-c2noc(C(F)(F)F)n2)cc1` [Compound 1.13, 3-chloro-2,2-dimethyl-N-[[4-[5-(trifluoromethyl)-1,2,4-oxadiazol-3-yl]phenyl]methyl]propanamide], the inhibition of growth at 20 ppm in data set [1] is at least 80%. Moreover, the pest or weed control at 100 ppm in the data set with Uromyces viciae-fabae is at least 80%. For the same compound, the pest or weed control at 200 ppm (in data set [2]; in data set [3]; in the data set with Phakopsora pachyrhizi) was at least 80% each time.
On to `C=C(C)C(=O)NCc1ccc(-c2noc(C(F)(F)F)n2)cc1` [Compound 1.16, 2-methyl-N-[[4-[5-(trifluoromethyl)-1,2,4-oxadiazol-3-yl]phenyl]methyl]prop-2-enamide], for which the inhibition of growth at 20 ppm in data set [1] was at least 80%. Moreover, the pest or weed control at 100 ppm in the data set with Uromyces viciae-fabae is at least 80%. The pest or weed control at 200 ppm (in data set [3]; in the data set on Phakopsora pachyrhizi) was at least 80% in each case.
As for `O=C(CCCCC(F)(F)F)NCc1ccc(-c2noc(C(F)(F)F)n2)cc1` [Compound 1.18, 6,6,6-trifluoro-N-[[4-[5-(trifluoromethyl)-1,2,4-oxadiazol-3-yl]phenyl]methyl]hexanamide], the pest or weed control at 100 ppm with Uromyces viciae-fabae is at least 80%. Further, the pest or weed control at 200 ppm (in data set [3]; in the data set with Phakopsora pachyrhizi) was at least 80% each time.
Take `CCC(COC)C(=O)NCc1ccc(-c2noc(C(F)(F)F)n2)cc1` (stereo not shown) [Compound 1.19, 2-(methoxymethyl)-N-[[4-[5-(trifluoromethyl)-1,2,4-oxadiazol-3-yl]phenyl]methyl]butanamide]: the inhibition of growth at 20 ppm in data set [1] is at least 80%. Also, the pest or weed control at 100 ppm in the data set on Uromyces viciae-fabae is at least 80%. The pest or weed control at 200 ppm (in data set [2]; in data set [3]; with Phakopsora pachyrhizi) was at least 80% each time.
With `N#CCC(=O)NCc1ccc(-c2noc(C(F)(F)F)n2)cc1` [Compound 1.22, 2-cyano-N-[[4-[5-(trifluoromethyl)-1,2,4-oxadiazol-3-yl]phenyl]methyl]acetamide], the pest or weed control at 100 ppm in the data set with Uromyces viciae-fabae is at least 80%. In addition, the pest or weed control at 200 ppm (in data set [2]; in data set [3]; in the data set with Phakopsora pachyrhizi) was at least 80% throughout.
Take `CCC(CC(=O)NCc1ccc(-c2noc(C(F)(F)F)n2)cc1)C(F)(F)F` (stereo not shown) [Compound 1.24, 3-(trifluoromethyl)-N-[[4-[5-(trifluoromethyl)-1,2,4-oxadiazol-3-yl]phenyl]methyl]pentanamide]: the pest or weed control at 100 ppm in the data set with Uromyces viciae-fabae is at least 80%.
Compound `COC(=O)NCCc1ccc(-c2noc(C(F)(F)F)n2)cc1` [Compound 2.36, methyl N-[2-[4-[5-(trifluoromethyl)-1,2,4-oxadiazol-3-yl]phenyl]ethyl]carbamat] gave a melting point of 84.8 to 86.5 °C. In addition, the inhibition of growth at 20 ppm in data set [1] was at least 80%. Further, in data set [2], the pest or weed control at 200 ppm is at least 80%. In data set [3], the pest or weed control at 200 ppm was at least 80%. Further, the pest or weed control at 200 ppm in the data set on Phakopsora pachyrhizi was at least 80%.
`CN(C)C(=O)NCc1ccc(-c2noc(C(F)(F)F)n2)cc1` [Compound 3.1, 1,1-dimethyl-3-[[4-[5-(trifluoromethyl)-1,2,4-oxadiazol-3-yl]phenyl]methyl]urea] showed a melting point of 118 to 125 °C. For the same compound, the inhibition of growth at 20 ppm in data set [1] was at least 80%. Besides, in data set [2], the pest or weed control at 200 ppm is at least 80%. The pest or weed control at 200 ppm in data set [3] is at least 80%. In addition, the pest or weed control at 200 ppm in the data set on Phakopsora pachyrhizi was at least 80%.
For `CON(C)C(=O)NCc1ccc(-c2noc(C(F)(F)F)n2)cc1` [Compound 3.2, 1-methoxy-1-methyl-3-[[4-[5-(trifluoromethyl)-1,2,4-oxadiazol-3-yl]phenyl]methyl]urea], the melting point is 90.2 to 93.8 °C. The inhibition of growth at 20 ppm in data set [1] was at least 80%. Moreover, the pest or weed control at 200 ppm in data set [2] was at least 80%. In addition, the pest or weed control at 200 ppm in data set [3] is at least 80%. In addition, the pest or weed control at 200 ppm with Phakopsora pachyrhizi was at least 80%.
`COCCNC(=O)NCc1ccc(-c2noc(C(F)(F)F)n2)cc1` [Compound 3.3] yielded a melting point of 152 to 155 °C. Moreover, in data set [1], the inhibition of growth at 20 ppm is at least 80%. Also, the pest or weed control at 200 ppm in data set [2] is at least 80%. The pest or weed control at 200 ppm in data set [3] was at least 80%. Also, in the data set with Phakopsora pachyrhizi, the pest or weed control at 200 ppm was at least 80%.
`CNC(=O)NCc1ccc(-c2noc(C(F)(F)F)n2)cc1` [Compound 3.4, 1-methyl-3-[[4-[5-(trifluoromethyl)-l,2,4-oxadiazol-3-yl]phenyl]methyl]urea] showed a melting point of 198 to 201 °C. In addition, in data set [1], the inhibition of growth at 20 ppm is at least 80%. Besides, in data set [2], the pest or weed control at 200 ppm was at least 80%. The pest or weed control at 200 ppm in data set [3] is at least 80%. In the data set with Phakopsora pachyrhizi, the pest or weed control at 200 ppm was at least 80%.
On to `CON(C)C(=O)NCCc1ccc(-c2noc(C(F)(F)F)n2)cc1` [Compound 3.5, 1-methoxy-1-methyl-3-[2-[4-[5-(trifluoromethyl)-1,2,4-oxadiazol-3-yl]phenyl]ethyl]urea], for which the melting point lay within 80 to 84 °C. Moreover, in data set [1], the inhibition of growth at 20 ppm is at least 80%. Also, the pest or weed control at 200 ppm in data set [2] is at least 80%. Moreover, the pest or weed control at 200 ppm in data set [3] is at least 80%. In addition, the pest or weed control at 200 ppm with Phakopsora pachyrhizi is at least 80%.
Compound `CON(C)C(=O)NC(C)(C)c1ccc(-c2noc(C(F)(F)F)n2)cc1` [Compound 3.25, 1-methoxy-1-methyl-3-[1-methyl-1-[4-[5-(trifluoromethyl)-1,2,4-oxadiazol-3-yl]phenyl]ethyl]urea] gave a melting point of 78 to 83 °C. Further, in data set [1], the inhibition of growth at 20 ppm is at least 80%. Also, the pest or weed control at 200 ppm in data set [2] was at least 80%. In data set [3], the pest or weed control at 200 ppm is at least 80%. Besides, the pest or weed control at 200 ppm in the data set on Phakopsora pachyrhizi is at least 80%.
In the case of `CON(C)C(=O)NC1(c2ccc(-c3noc(C(F)(F)F)n3)cc2)CC1` [Compound 3.26, 1-methoxy-1-methyl-3-[1-[4-[5-(trifluoromethyl)-1,2,4-oxadiazol-3-yl]phenyl]cyclopropyl]urea], the melting point lay in the range of 81 to 83 °C. In data set [1], the inhibition of growth at 20 ppm is at least 80%. Also, the pest or weed control at 200 ppm in data set [2] was at least 80%. Moreover, the pest or weed control at 200 ppm in data set [3] was at least 80%. Further, the pest or weed control at 200 ppm in the data set on Phakopsora pachyrhizi was at least 80%.

A word on the melting point: it is the temperature, or range, at which the solid turns liquid.

The values above are taken from patent US10501425B2, “Microbiocidal oxadiazole derivatives” (SYNGENTA PARTICIPATIONS AG, priority 2015, dated 2019).
